Measurements as given in patent US9415094B2, “Method of reducing side effects associated with administration of tissue plasminogen activator (tPA)” (INSERM (Institut National de la Sante et de la Recherche …, priority 2009, dated 2016).

Key:
[1] = tested on: elastase-treated mice (emphysema); assay: Elastase-induced emphysema in mice; format: in vivo; details: HDL 75 mg/kg; AAT alone 3.75 mg/kg; i.v., 4 injections
Protocol: First, large amount of HDL purified from human plasma by ultracentrifugation was pooled in order to work with the same batch of HDL and HDL enriched with AAT. AAT was incubated for 16 hours at 37° C. under gentle agitation. […] A Western-Blot for AAT and apolipoprotein A-I was performed on HDL and HDL loaded with AAT. […] Anti-elastase assay was performed in parallel, corroborating the results obtained by WB. These experiments quantify AAT in enriched HDL. The same amount of free AAT was then injected in a control group. The aim of this experiment is to test whether HDL-AAT prevent more the development of emphysema relative to AAT injected alone. HDL containing naturally AAT are also injected in another group.
45 mice are subjected to intra-tracheal elastase instillation.
The mice were sacrificed 28 day after initial instillation of elastase, and the emphysema was semi-quantified by scoring alveoli destruction (double blind determination by two independent pathologists).

[2] = tested on: hCMEC/D3 cells; assay: In vitro blood-brain barrier model with tPA under OGD; format: cell-based, human
Protocol: The human brain endothelial cell line hCMEC/D3 kindly provided by Dr. P. O. Couraud. Cells were cultured in complete EBM-2 medium (Endothelial Basal Medium+2.5% of fetal calf serum and supplements containing hydrocortisone and growth factors).
OGD (Oxygen Glucose Deprivation) conditions were obtained by using DMEM medium without glucose (Gibco) versus 1 g/L glucose DMEM for non-OGD conditions. Oxygen deprivation was obtained by using a hypoxia chamber (Billups-Rothenberg) where atmospheric air was replaced by a mix of gas (0% O2, 5% CO2, 95% N2, Air Product). DMEM used for OGD conditions was equilibrated with the same mix.
For permeability experiments, hCMEC/D3 cells were seeded at 5.105 cells/cm^2 on collagen inserts (PCF filters, 0.4 μm pore size, Millicell 24-well plates, Millipore) in complete EBM-2. Cells were grown for 14 days post-confluence before use. Permeability was assessed using fluorescein isothiocyanate (FITC) labelled dextran (70 kDa molecular weight). […] 200 μL from the collecting wells were transferred into a 96-well plate, and the dextran fluorescence was determined on the microplate reader at 485 nm (excitation) and 538 nm (emission). Fluorescence was converted to concentration using a standard curve. The volume cleared was calculated from the ratio of dextran concentration in each sample to the applied concentration (0.385 mg/mL). The endothelial permeability coefficient Pe (cm/min) was calculated by determining the volumes of clearance of dextran with or without cells. The cleared volume was calculated from the […], and plotted against time. PS (permeability surface) was calculated from 1/PS=1/PSe−1/PSf, where PSe is the slope of clearance in the presence of cells and PSf is the slope for a blank insert (cell free)16. […]
For detection of fibronectin in HCMEC/D3 cell culture supernatant, 5 μL of conditioned medium were analyzed by SDS-8% PAGE. […]

[3] = tested on: transient filament MCAO; assay: Transient filament MCAO (fMCAO) with tPA (Example 9)
Excerpt: STAIR recommendations have been followed to avoid bias due to experimental design 10. Animal care and experimental protocols were approved by the Animal Ethics Committee of the INSERM-University Paris 7. Male Sprague-Dawley rats (Janvier, France) weighing 300 to 350 g, were anesthetized by isoflurane mixed with air (4% for induction; 1% during surgery), under spontaneous respiration. Two different models of focal cerebral ischemia were used as requested by STAIR recommendations: embolic (eMCAO) and transient filament MCAO (fMCAO). Focal cerebral ischemia was induced by intraluminal occlusion of the middle cerebral artery for 4 hours. eMCAO was induced by injection of a preformed clot at the origin of MCA as already described. Continuous laser Doppler flowmetry (VMS, Moor Instrument) was used to monitor regional cerebral perfusion to ensure the adequacy of filament MCA occlusion (perfusion decreased to <20% of preischemic baselines). […] Saline (2.0 mL/kg body weight) with or without recombinant tPA (10 mg/kg body weight; Actilyse, Boehringer Ingelheim) was administered (10% bolus, 90% continuous infusion) to rats via the right femoral vein. The relatively high dose of tPA was necessary to achieve a fibrinolytic effect in rats similar to that of thrombolytic therapy in humans. Continuous tPA or saline infusion (for 30 min. Harvard Apparatus Infusion Pump) started 4 hours after stroke onset, immediately before recanalization (after withdrawal of the filament in fMCAO), or 4 hours after clot placement in the MCA. After saline or tPA administration, rats were returned to their cages. Body temperature was maintained at 37° C.±0.5 with a heating pad for the duration of surgery. Glycemia, arterial blood pressure and blood gases were also monitored during surgery. […] Computer-based randomization was used to allocate drug regimens to each group. Experiments were blinded and the operator was unaware of group allocation during surgery and outcome assessment.
Seven coronal sections of the brain (2 mm in thickness) were stained with 2% 2,3,5-triphenyltetrazolium chloride (TTC, Sigma-Aldrich) for 20 minutes at room temperature. […] Volume calculation with oedema correction was performed blindly using the following formula: 100× (contralateral hemisphere volume−non infarct ipsilateral hemisphere volume)/contralateral hemisphere volume. […] Ten-micrometer sections were cut from the caudal site of all 7 slices and analyzed before TTC staining. Areas of hemorrhagic transformation from these 7 brain sections were measured using Photoshop software by semi-automatic selection of extravasated erythrocytes.

[4] = tested on: blood-brain barrier; assay: IgG extravasation in filament MCAO model; format: in vivo, Sprague-Dawley rats; details: tPA vs saline; combination vs tPA alone
Protocol: Blood-brain barrier permeability was evaluated in vivo by using fluorescence detection of IgG extravasation in filament MCAO model. At 24 hours after stroke, rats were deeply anesthetized with pentobarbital and transcardially perfused with saline. Brains were removed, cut in 2 mm coronal sections, embedded with OCT and frozen. Ten μm sections (at +0.70 mm posterior to bregma) were prepared. Sections were prepared and incubated overnight at 4° C. with donkey anti-rat IgG antibodies (5 μg/mL, Molecular Probes) labelled with Alexa Fluor® 488. IgG extravasation was quantified semi-automatically with morphometry software (Histolab 6.1.5, Microvision Instruments).

[5] = acute phase of stroke; cited from earlier work
[6] = tested on: embolic MCAO; assay: Embolic MCAO (eMCAO) with tPA (Example 9)
Excerpt: STAIR recommendations have been followed to avoid bias due to experimental design 10. Animal care and experimental protocols were approved by the Animal Ethics Committee of the INSERM-University Paris 7. Male Sprague-Dawley rats (Janvier, France) weighing 300 to 350 g, were anesthetized by isoflurane mixed with air (4% for induction; 1% during surgery), under spontaneous respiration. Two different models of focal cerebral ischemia were used as requested by STAIR recommendations: embolic (eMCAO) and transient filament MCAO (fMCAO). Focal cerebral ischemia was induced by intraluminal occlusion of the middle cerebral artery for 4 hours. eMCAO was induced by injection of a preformed clot at the origin of MCA as already described. Continuous laser Doppler flowmetry (VMS, Moor Instrument) was used to monitor regional cerebral perfusion to ensure the adequacy of filament MCA occlusion (perfusion decreased to <20% of preischemic baselines). […] Saline (2.0 mL/kg body weight) with or without recombinant tPA (10 mg/kg body weight; Actilyse, Boehringer Ingelheim) was administered (10% bolus, 90% continuous infusion) to rats via the right femoral vein. The relatively high dose of tPA was necessary to achieve a fibrinolytic effect in rats similar to that of thrombolytic therapy in humans. Continuous tPA or saline infusion (for 30 min. Harvard Apparatus Infusion Pump) started 4 hours after stroke onset, immediately before recanalization (after withdrawal of the filament in fMCAO), or 4 hours after clot placement in the MCA. […] Glycemia, arterial blood pressure and blood gases were also monitored during surgery. […]
Seven coronal sections of the brain (2 mm in thickness) were stained with 2% 2,3,5-triphenyltetrazolium chloride (TTC, Sigma-Aldrich) for 20 minutes at room temperature. […] Ten-micrometer sections were cut from the caudal site of all 7 slices and analyzed before TTC staining. Areas of hemorrhagic transformation from these 7 brain sections were measured using Photoshop software by semi-automatic selection of extravasated erythrocytes.

[7] = tested on: collagen IV (basal lamina of cerebral microvessels); assay: Collagen IV immunoreactivity in cerebral microvessels (filament MCAO); format: in vivo, Sprague-Dawley rats; details: 24 hours after stroke; combination relative to tPA alone
Protocol: Frozen sections were fixed with 3.7% paraformaldehyde and blocked with 10% goat serum. Sections were incubated overnight at 4° C. with a rabbit polyclonal to collagen IV (2 μg/mL, Abcam) for detection of basal lamina of intracerebral vessels. FITC-conjugated Bandeiraea Simplicifolia Lectin I (isolectin B4) (5 μg/mL, Vector Laboratories) was used to visualize endothelial cells. Non-immune rabbit IgG were included in each set of experiments as primary antibody to test the specificity of the signal. We used Alexa-Fluor® 555 as secondary antibodies. Immunostaining was analysed with a fluorescent microscope interfaced with a digital capture system. All immunohistological evaluations were carried out by an observer who was blinded to the treatment. For semi-quantification of the collagen type IV expression, three fields of each territory were acquired using a×10 objective. A threshold of fluorescence intensity, which encompasses positive vessels on the contralateral image, was applied to each corresponding ipsilateral image. IHC analysis was performed in filament MCAO model.

Substance | protective effect on development of emphysema [1] | VE-cadherin intercellular junction organization ([2]; 200 nM tPA and/or 400 μg/mL HDL) | release of soluble fibronectin/fragments in supernatants ([2]; 200 nM tPA and/or 400 μg/mL HDL, Western Blot) | BBB permeability in vitro ([2]; 200 nM tPA, 4 hours of stimulation) | edema surrounding ischemic cerebral vessels ([3]; compared to HDL+tPA group) | infarct volume ([3]; fMCAO, 24 hours, tPA and HDL alone vs saline, combination vs tPA alone) | mortality rate ([3]; fMCAO, tPA 10 mg/kg 4 hours after stroke onset, 24 hours) | mortality ([3]; fMCAO, tPA and HDL alone vs saline, combination vs tPA alone) | IgG extravasation in the ischemic hemisphere [4] | increase in symptomatic cerebral haemorrhage [5] | infarct volume ([6]; 24 hours, tPA and HDL alone vs saline, combination vs tPA alone) | mortality rate ([6]; tPA 10 mg/kg 4 hours after stroke onset, 24 hours) | mortality ([6]; tPA and HDL alone vs saline, combination vs tPA alone) | number of collagen IV immunoreactive vessels in the infarcted area [7]
AAT: 52 kD glycoprotein, natural inhibitor of neutrophil elastase | mild protective effect |  |  |  |  |  |  |  |  |  |  |  |  | 
tPA: recombinant tissue plasminogen activator, thrombolytic drug approved for stroke |  | induced a disorganization of intercellular junctions | induced an important release of fibronectin/fragments | neither tPA nor OGD were sufficient to induce increased BBB permeability | Large edema | increased infarct volume | 86.05% | increased | significantly increased IgG extravasation | 10 fold | increased infarct volume | 56.25% | increased | decreased
